Our source for the GI50 and TGI values is PubChem BioAssay (NCI).

Several values for one entry are separate records, joined by “and”; a condition that tells them apart may be missing. Identical values can stand only once.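 Cultured in 96-well plates, cells were exposed to test compound for 48 hours across five concentrations. The concentration for 50% growth inhibition is given as GI50. The concentration for full growth arrest is given as TGI.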

Holding throughout (test): growth of human tumour cells (NCI), 48 h
Assay [1] deals with A549 NSCLC.
The test system of assay [2] is BT-549 breast.
In assay [3] the test system is MDA-MB-231 breast.
Assay [4] concerns NCI-H23 lung.
The test system of assay [5] is SF-268 CNS.
The test system of assay [6] is SNB-75 CNS.
In assay [7] the test system is SW-620 colon.
Assay [8] deals with UACC-62 melanoma.

On to `CCC(CC)n1cnc2c(-c3cnc(N)cn3)nc(N3CC4CCC(C3)O4)nc21`, for which the GI50 was 0.405 µM in assay [1]; 0.108 µM in assay [2]; 0.191 µM in assay [3]; 0.56 µM in assay [4]; 0.566 µM in assay [5]; 0.0848 µM in assay [6]. In addition, the GI50 is 0.76 µM in assay [7] and 0.122 µM in assay [8]. The TGI in assay [1] is above 100 µM; in assay [2], 2.5 µM; in assay [3] it was above 100 µM; in assay [4], above 100 µM; in assay [5] it was above 100 µM; in assay [6], 1.18 µM. Further, the values for the TGI in assay [7] and in assay [8] were above 100 µM and 0.929 µM, respectively.
Take `C(=N\Nc1ncc(-c2cc3cc4c(cc3o2)OCO4)s1)/c1ccco1`: the GI50 was 1.79 µM in assay [1]; 3.43 µM in assay [2]; 1.64 µM in assay [3]; 1.51 µM in assay [4]; 2.67 µM in assay [5]; 1.86 µM in assay [6]. In addition, the GI50 in assay [7] is 0.681 µM; in assay [8], 3.81 µM. Moreover, the TGI in assay [1] turned out to be 6.87 µM; in assay [2], 15.2 µM; in assay [3], 3.83 µM; in assay [4], 4.22 µM; in assay [5], 23.1 µM; in assay [6], 11.4 µM. Also, the TGI in assay [7] came to 2.48 µM; in assay [8], 14.5 µM.
For `COc1cc(-c2nn(-c3cccc(NC(=O)Nc4ccc(Cl)c(C(F)(F)F)c4)c3)cc2-c2ccncc2)ccc1Cl`, the GI50 in assay [1] is 1.02 µM; in assay [2] it was 2.36 µM; in assay [3], 0.76 µM; in assay [4] it was 1.13 µM; in assay [5], 1.46 µM; in assay [6] it was 1.28 µM. Further, the GI50 in assay [7] is 1.29 µM; in assay [8], 0.738 µM. Moreover, the TGI in assay [1] was found to be 16.7 µM; in assay [2], 10.2 µM; in assay [3], 2.6 µM; in assay [4], 8.02 µM; in assay [5] it was 9.14 µM; in assay [6], 10.3 µM. In addition, the TGI was determined as 29.9 µM in assay [7] and 2.09 µM in assay [8].
In the case of `Cc1c(CN2CCN(C(=O)[C@H](C)O)CC2)sc2c(N3CCOCC3)nc(-c3cnc(N)nc3)nc12`, the GI50 in assay [1] was 0.439 µM and 0.207 µM; in assay [2], 0.146 µM and 0.065 µM; in assay [3] it was 0.515 µM and 0.384 µM; in assay [4] it was 0.389 µM and 0.181 µM; in assay [5], 0.328 µM and 0.204 µM; in assay [6], 0.0317 µM and 0.0235 µM. Moreover, the GI50 in assay [7] is 0.473 µM and 0.285 µM; in assay [8], 0.1 µM and 0.11 µM. The TGI in assay [1] was 9.75 µM and 7.57 µM; in assay [2] it was 3.11 µM and 0.57 µM; in assay [3], above 40.6 µM; in assay [4] it was above 100 µM; in assay [5], > 10 µM and 27.1 µM; in assay [6], 0.67 µM and 0.255 µM. In addition, the TGI in assay [7] is above 100 µM; in assay [8] it was 0.917 µM and 0.467 µM.
As to `Fc1cccc(COc2ccc(Nc3ncnc4onc(-c5ccccc5)c34)cc2)c1`, the GI50 in assay [1] is 0.175 µM; in assay [2] it was 0.347 µM; in assay [3], 0.402 µM; in assay [4], 0.583 µM; in assay [5], 0.384 µM; in assay [6], below 0.0162 µM. Also, the figures for the GI50 in assay [7] and in assay [8] were 0.139 µM and 0.496 µM, respectively. Moreover, the TGI in assay [1] is above 100 µM; in assay [2], above 100 µM; in assay [3], 14.8 µM; in assay [4], above 100 µM; in assay [5], above 100 µM; in assay [6], 0.155 µM. In addition, the results for the TGI in assay [7] and in assay [8] were above 100 µM and above 64.4 µM, respectively.
Consider `O=C(O)c1cccc(S(=O)(=O)NCCO)c1`, for which the TGI in assay [1], in assay [2], in assay [3], in assay [4], in assay [5] and in assay [6] was above 100 µM throughout. The TGI in assay [7] and in assay [8] was above 100 µM in each case.
On to `CC(=O)O.CN1[CH-]N(Cc2ccc(C#N)cc2)c2ccccc21.[Ag+]`, for which the GI50 in assay [1] was 32.3 µM; in assay [2] it was 18.8 µM; in assay [3] it was 18.2 µM; in assay [4], 20.8 µM; in assay [5] it was 72 µM; in assay [6] it was 20.6 µM. For the same compound, the GI50 was 15.3 µM in assay [7] and 16.4 µM in assay [8]. The TGI in assay [1] was above 100 µM; in assay [2] it was 38.4 µM; in assay [3], 36 µM; in assay [4] it was 58 µM; in assay [5] it was above 100 µM; in assay [6], 68.9 µM. Also, the TGI in assay [7] and in assay [8] was 31 µM each time.
With `Cc1ccc(CNc2ccc3nc(CCC4CCCCC4)[nH]c3c2)cc1`, the GI50 in assay [1] was 3.02 µM; in assay [2], 2.45 µM; in assay [3], 1.68 µM; in assay [4], 2.1 µM; in assay [5], 3.08 µM; in assay [6] it was 1.75 µM. In addition, the GI50 in assay [7] was 1.99 µM; in assay [8] it was 1.74 µM. Moreover, the TGI was 17.6 µM in assay [1]; 7.34 µM in assay [2]; 3.33 µM in assay [3]; 4.88 µM in assay [4]; above 100 µM in assay [5]; 5.25 µM in assay [6]. The TGI was determined as 4.64 µM in assay [7] and 3.4 µM in assay [8].
In the case of `COc1ccc(Nc2nc(NCCNc3ccnc4cc(Cl)ccc34)nc(N3CCOCC3)n2)cc1`, the GI50 is 4.87 µM in assay [1]; 9.92 µM in assay [2]; 2.73 µM in assay [3]; 13.7 µM in assay [4]; 5.02 µM in assay [5]; 2.09 µM in assay [6]. In addition, the results for the GI50 in assay [7] and in assay [8] were 3.47 µM and 1.85 µM, respectively. Also, the TGI in assay [1] came to 20.3 µM; in assay [2], 22.1 µM; in assay [3] it was 10.2 µM; in assay [4] it was 29.7 µM; in assay [5] it was 19.5 µM; in assay [6], 8.73 µM. Further, the values for the TGI in assay [7] and in assay [8] were 13.4 µM and 3.59 µM, respectively.
As for `OC1CC2CCC(C1)N2CCCN1c2ccccc2Sc2ccc(Cl)cc21` (centres undefined), the TGI in assay [1] amounted to 7.45 µM; in assay [2], 10.7 µM; in assay [3], 3.66 µM; in assay [4], 8.12 µM; in assay [5], 6.23 µM; in assay [6], 5.23 µM. Besides, the TGI in assay [7] came out at 5.77 µM; in assay [8], 3.39 µM.
